This test deals with mucus-forming epithelial cells TR146. The experiment in a line: in vitro cell culture model: TR146 cells damaged with acidic HCl/pepsin solution, then incubated with ectoine; cell count by neutral red cytotoxicity assay. The class given is cell-based. The following applies: FIG. 1. The protocol:
The cells were treated with acid solutions containing the digestive enzyme pepsin and following this treated with ectoine. TR146 cells were added to a microplate having 96 wells, with the cells being allowed to grow until the surface was almost completely covered. The cells were then treated for 10 min. with a diluted acidic HCl solution together with pepsin in a cell culture medium. The concentration of pepsin was 2 U/ml. Following this, the cells were washed with PBS (phosphate buffered saline) and incubated overnight either with ectoine or for control purposes with pure solvent. After incubation, a cell count determination was carried out using a […] for which a cyanine-based nucleic acid dye was employed. The assay is based on the fact that the plasma membrane of damaged or dead cells becomes permeable to the dye and the dye binds to the DNA of the cell, which is associated with a corresponding increase in fluorescence. For […] control, cells were treated with 0.1% sodium dodecyl sulfate (SDS) solution as denaturing agent. Other cells (full medium) were not treated with acid/pepsin.

As to `CC1=NCC[C@@H](C(=O)O)N1` (stereo in doubt) [ectoine, 2-methyl-1,4,5,6-tetrahydropyrimidine-4-carboxylic acid], for the setting “50 mM ectoine, overnight incubation after 10 min acidic HCl solution with pepsin 2 U/ml”, the “effect with respect to the regeneration of the cells” value is recorded as “excellent effect”. The cell viability result (cells treated with ectoine (50 mM) after acid/pepsin, compared with full-medium cells not treated with acid/pepsin) was “comparable to that of cells that were not subjected to a treatment with an acidic pepsin solution”.

For the origin of these results see patent publication US20190350930A1, “COMPOSITION FOR CONTROLLING GASTROESOPHAGEAL REFLUX DISEASES” (bitop AG, priority 2016, published 2019).
